The results in this text go back to US11530216B2, “Deuterated colony stimulating factor-1 receptor (CSF-1R) inhibitors” (Genzyme Corporation, priority 2020, dated 2022).

One data set has as its system primary murine microglia. The experiment in a line: Immunostaining of primary microglia (Iba1+ area, DAPI+ nuclei) after CSF-1 stimulation. It counts as cell-based, mouse. Conditions: Mus musculus, Microglia. Here is the method:
Primary mouse microglia were suspended at a concentration of 5×10^5 cells/mL and 100 μL of this cell suspension was added to the inner 60 wells of three 96-well plates. Microglia cells were allowed to rest overnight at 37° C., 5% CO2. […] Cells were then stimulated with 100 ng/mL recombinant mouse CSF-1 for 24 hours. After stimulation, the culture supernatant was removed from each well and aliquoted into two different 96-well plates for subsequent ELISA assays. Plates were fixed with 4% PFA for future immunocytochemistry analysis. Following the stimulation, cells were fixed with 4% PFA for 20 minutes at room temperature. Cells were then rinsed in PBS, washed 3×5 minutes in 0.2% PBT (0.2% Triton X-100 in PBS) and blocked with 10% donkey serum/0.2% PBT for 1 hour at room temperature. […] After staining, plates were imaged on the IN Cell Analyzer 2200 with 9 fields of view acquired per well. […] A one-way ANOVA was used to determine the statistical significance of differences between samples. […] Following a microglial stimulation, immunocytochemistry was completed with Iba1, Ki67, and DAPI to determine microglial morphology, proliferative state, and number. InCell imaging microsope and analysis software was used to quantify Iba1^+ area, and the number of DAPI^+ nuclei within the cultures.

Data set [1] deals with primary mouse microglia (wild type, SOD1). Put plainly: CellTiter Glo 2.0 viability assay, wild-type and SOD1 primary microglia. It counts as cell-based. Conditions: wild type and SOD1 cells. As to the method:
(§1) The impact of a deuterated CSF-1R inhibitor of this disclosure on cytokine/chemokine production following CSF-1 or LPS stimulation in wild-type versus SOD1 mutant primary microglial cells was examined in the following experiments.
(§2) Methods Treatment and Stimulation of Primary Microglial Cells
(§3) Primary mouse microglia were suspended at a concentration of 5×10^5 cells/mL and 100 μL of this cell suspension was added to each well of a 96-well plate. Microglia cells were allowed to rest overnight at 37° C., 5% CO2. […] Cells were then stimulated with 100 ng/mL recombinant mouse M-CSF for 30 minutes or 10 ng/mL lipopolysaccharide for 24 hours. After stimulation, the culture supernatant was removed from each well and aliquoted into two different 96-well plates for subsequent ELISA assays.
Cell viability was determined using Promega's Cell Titer Glo Luminescent Cell Viability Assay. […] 100 μL was transferred from each well to a white plate and luminescence was read immediately on the FlexStation3 plate reader.
Primary murine microglia were plated at 50,000 cells per well and rested overnight. […] Cell viability was assessed after 24 hours utilizing Promega's Cell Titer Glo Assay Kit. Both CSF-1 and LPS stimulation induced a slight increase in the cell viability readout versus unstimulated cells (FIGS. 8A-8B and FIGS. 9A-9B).

The test system of data set [2] is IL-12p40 production in primary mouse microglia (wild type, SOD1). The experiment in a line: IL-12p40 ELISA, wild-type and SOD1 primary microglia, LPS stimulation. The note with it: LPS stimulation, 50, 100, 200 nM, wild type and SOD1 cells. It counts as cell-based. As to the method: as §1, §2, §3
Cell culture supernatants were assayed with the Quantikine Mouse IL-12p40 ELISA kit from R&D Systems (cat #MP400). Samples were diluted 1:10 with Calibrator Diluent. Fifty microliters of Assay Diluent were first added to each well. Fifty microliters of Standards, Assay Control and diluted Sample were then added in singlicate to the wells. The plate was mixed by gently tapping the frame, then sealed with an adhesive strip. The plate incubated for 2 hours at room temperature. […] After incubation, the acid stop solution was added to each well, and the plate was read on the ELISA plate reader at 450 nm.
For orientation: In an ELISA, binding on a coated surface is turned into a signal by an enzyme label.

Data set [3] concerns MCP-1 production in iCell microglia (human iPSC derived microglia). Put plainly: MCP-1 ELISA, iCell human microglia, CSF1 stimulation. It counts as cell-based. The note with it: 1.5625-200 nM, CSF1 100 ng/mL 24 hours. As to the method: iCell microglia (human iPSC derived microglia) were acquired from FujiFilm (cat #C1110, lot #105458). These cells were thawed and maintained in iCell Microglia Complete Media according the manufacture instructions. For this assay, iCell microglia were resuspended at a concentration of 5×10^5 cells/mL and 100 μL of this cell suspension was added to the inner 60 wells of a 96-well plate. iCell microglia were allowed to rest overnight at 37° C., 5% CO2. The following evening, the media was removed and replaced with Neurobasal Media (Gibco, cat #21103049) containing B27 supplement (Gibco, cat #17504044). Again, cells were allowed to rest overnight at 37° C., 5% CO2. […] Cells were then stimulated with 100 ng/mL recombinant human CSF1 for 24 hours. After stimulation, the culture supernatant was removed from each well and aliquoted into two different 96-well plates for subsequent ELISA assays.
Culture supernatants were assayed with the Quantikine Human MCP-1 ELISA kit (R&D Systems, cat #SCP00). […] After incubation, fifty microliters of the acid stop solution was added to each well, and the plate was read on the FlexStation3 Multi-Mode Microplate Reader (Molecular Devices, cat #Flex3) with SoftMax Pro Software at 450 nm.
iCell microglia (human iPSC derived microglia) were plated at 50,000 cells per well and rested overnight. […] Cell viability was assessed utilizing Promega's Cell Titer Glo Assay Kit. […]

SMILES strings stand for the structures. pIC50: −log10 of the molar value. Entries after “also recorded” stand apart in the source; their conditions may differ. Like-named read-outs stand apart in the source and are kept apart here.

Consider `[2H]c1nc2cccnc2n1Cc1cc(OC)c2c(c1)O[C@@H](C)[C@H](c1ccc(OC)nc1)O2` [Compound 6, 3-(((2S,3S)-8-methoxy-2-(6-methoxypyridin-3-yl)-3-methyl-2,3-dihydrobenzo[b][1,4]dioxin-6-yl)methyl)-3H-imidazo[4,5-b]pyridine-2-d], for which the values for the pIC50 in the data set on primary murine microglia (read-out: IC50 for DAPI (DAPI+ cell number)) and with primary murine microglia (read-out: IC50 for Iba1 (Iba1+ area)) were 6.61 and 7.07, respectively. Also, the cell viability entry in data set [1] (CSF-1 stimulation, 50, 100, 200 nM) is reported as “no toxic effect on microglia at the concentrations assessed; also recorded: slightly reduced the CSF-1-induced increase in cell viability”; in data set [1] (LPS stimulation, 50, 100, 200 nM), “no deleterious effect on cell viability”. For the same compound, in data set [2], the IL12-p40 production result is “significantly reduced IL12-p40 production in a concentration dependent manner”. Further, the MCP1 production result in data set [3] is “significantly reduced MCP1 production in a concentration dependent manner”.

In general, pIC50 refers to the negative decadic logarithm of the IC50, by convention in mol/L.
